Experimental data from patent publication US7893266B2, “Detection of cancer cells in vitro using sigma-2 receptor ligands as radiotracers” (Washington University, priority 2003, dated 2011).

Tested on: EMT-6 mammary tumors
Experiment: Biodistribution in EMT-6 BALB/C mice
Format: in vivo
Experimental: As used herein, the term “tumor:background ratio” (i.e., tumor:fat ratio, tumor:muscle ratio, tumor:lung ratio, tumor:blood ratio) refers to the % injected dose/g tissue of the radiotracer in the tumor divided by the % injected dose/g […] in the background tissue (i.e., fat, muscle, lung, blood).
B. Biodistribution Studies of ^11C analogs in Tumor-Bearing Mice. Biodistribution studies were conducted in mature Balb/c mice that were implanted with EMT-6 mammary tumors identified herein as EMT-6 BALB/C mice to create laboratory tumor-bearing mice. The mice were implanted in the scapular region seven days prior to the study. Animals were injected with 100-150 μCi of the ^11C-labeled radiotracer and the animals were sacrificed at 5, 30, and 60 min post-i.v. injection of the radiotracer.
A series of biodistribution studies in tumor-bearing mice were also conducted with [^76Br]8, [^76Br]6, [^125I]8i, and [^125I]6i.

COc1cc2c(cc1OC)CN(CCNC(=O)c1cc([125I])ccc1OC)CC2 [[^125I]8i]
ratio Tumor:blood (5 min): 0.42 ± 0.03
ratio Tumor:fat (5 min): 0.84 ± 0.06
ratio Tumor:heart (5 min): 1.04 ± 0.08
ratio Tumor:lung (5 min): 0.50 ± 0.07
ratio Tumor:muscle (5 min): 2.00 ± 0.37
ratio Tumor:blood (30 min): 0.57 ± 0.12
ratio Tumor:fat (30 min): 1.49 ± 0.65
ratio Tumor:heart (30 min): 1.44 ± 0.18
ratio Tumor:lung (30 min): 0.98 ± 0.16
ratio Tumor:muscle (30 min): 2.06 ± 0.69
ratio Tumor:blood (1 hour): 0.62 ± 0.09
ratio Tumor:fat (1 hour): 1.93 ± 1.87
ratio Tumor:heart (1 hour): 1.81 ± 0.32
ratio Tumor:lung (1 hour): 0.91 ± 0.24
ratio Tumor:muscle (1 hour): 2.14 ± 0.99
ratio Tumor:blood (2 hour): 0.26 ± 0.08
ratio Tumor:fat (2 hour): 2.44 ± 0.77
ratio Tumor:heart (2 hour): 1.00 ± 0.27
ratio Tumor:lung (2 hour): 0.67 ± 0.14
ratio Tumor:muscle (2 hour): 2.17 ± 0.23
% ID per gram blood (5 min): 6.90 ± 1.29 % ID per gram
% ID per gram blood (30 min): 2.44 ± 0.65 % ID per gram
% ID per gram blood (1 hour): 1.17 ± 0.29 % ID per gram
% ID per gram blood (2 hour): 3.37 ± 1.23 % ID per gram
% ID per gram brain (5 min): 1.42 ± 0.33 % ID per gram
% ID per gram brain (30 min): 0.20 ± 0.06 % ID per gram
% ID per gram brain (1 hour): 0.06 ± 0.02 % ID per gram
% ID per gram brain (2 hour): 0.09 ± 0.03 % ID per gram
% ID per gram fat (5 min): 3.46 ± 0.59 % ID per gram
% ID per gram fat (30 min): 1.03 ± 0.44 % ID per gram
% ID per gram fat (1 hour): 0.77 ± 0.66 % ID per gram
% ID per gram fat (2 hour): 0.37 ± 0.13 % ID per gram
% ID per gram heart (5 min): 2.79 ± 0.35 % ID per gram
% ID per gram heart (30 min): 0.94 ± 0.19 % ID per gram
% ID per gram heart (1 hour): 0.40 ± 0.02 % ID per gram
% ID per gram heart (2 hour): 0.86 ± 0.26 % ID per gram
% ID per gram kidney (5 min): 54.77 ± 8.42 % ID per gram
% ID per gram kidney (30 min): 38.59 ± 2.05 % ID per gram
% ID per gram kidney (1 hour): 18.07 ± 2.07 % ID per gram
% ID per gram kidney (2 hour): 8.46 ± 1.26 % ID per gram
% ID per gram liver (5 min): 41.37 ± 7.23 % ID per gram
% ID per gram liver (30 min): 8.20 ± 1.05 % ID per gram
% ID per gram liver (1 hour): 2.87 ± 0.34 % ID per gram
% ID per gram liver (2 hour): 3.47 ± 1.05 % ID per gram
% ID per gram lung (5 min): 5.95 ± 1.30 % ID per gram
% ID per gram lung (30 min): 1.39 ± 0.29 % ID per gram
% ID per gram lung (1 hour): 0.81 ± 0.20 % ID per gram
% ID per gram lung (2 hour): 1.27 ± 0.37 % ID per gram
% ID per gram muscle (5 min): 1.47 ± 0.20 % ID per gram
% ID per gram muscle (30 min): 0.70 ± 0.25 % ID per gram
% ID per gram muscle (1 hour): 0.37 ± 0.23 % ID per gram
% ID per gram muscle (2 hour): 0.38 ± 0.06 % ID per gram
% ID per gram tumor (5 min): 2.91 ± 0.40 % ID per gram
% ID per gram tumor (30 min): 1.33 ± 0.13 % ID per gram
% ID per gram tumor (1 hour): 0.71 ± 0.12 % ID per gram
% ID per gram tumor (2 hour): 0.82 ± 0.09 % ID per gram
